{"source": "patent US20040058957A1", "about": "“Benzothiophene derivatives and herbicidal compositions containing the same” (priority 2000, published 2004)", "format_in_all_cases": "in vivo", "details_in_all_cases": "rated 30 days after application", "key": {"[1]": {"tested_on": "Scirpus juncoides", "assay": "Submersion test, treatment 10 days after transplantation: herbicidal effect", "method": "(§1) A mixture consisting of 57 parts by weight of talc and 40 parts by weight of bentonite as carrier and 3 parts by weight of sodium alkylbenzenesulfonate as surfactant was pulverized and mixed uniformly to obtain a carrier for wettable powder. Each herbicidal composition was prepared by uniformly pulverizing and mixing 90 parts by weight of the carrier for wettable powder and 10 parts by weight of the benzothiophene derivative produced in each example.\n(§2) Seeds of Scirpus juncoides were sowed onto paddy field soil in a Wagner pot of 1/2000 are. Then, rice seedlings of 2.5 leaf stage were transplanted in the soil. Water was pored into the pot so as to submerge the soil at a depth of 3 cm. The pot was placed in a greenhouse maintained at 20 to 25° C. for vegetation. After 10 days from transplantation of the rice seedlings, a predetermined amount of the herbicidal composition prepared in the step [1] was applied to the pot. After 30 days from the application of the herbicidal composition, the herbicidal effect and injury to the paddy rice were determined.\n(§3) The herbicidal effect and the injury to crops in the above tests (1) and (2) were evaluated based on the following ratings.\n(§4) The degree of weed control (%) was calculated from the weights of the above-ground parts of fresh weeds in the treated area and the untreated area using the following equation:\n(§5) Degree of weed control (%)=[1−(weight of weeds in treated area)/(weight of weeds in untreated area)]×100\n(§6) The herbicidal effect was determined according to the following ratings: […]"}, "[2]": {"tested_on": "paddy rice", "assay": "Submersion test, treatment 3 days after transplantation: injury to paddy rice", "parameters": "key: 0: No injury; 1: Substantially no injury; 2: Slight injury; 3: Some injury; 4: Remarkable injury; 5: Almost all crops dead", "method": "A mixture consisting of 57 parts by weight of talc and 40 parts by weight of bentonite as carrier and 3 parts by weight of sodium alkylbenzenesulfonate as surfactant was pulverized and mixed uniformly to obtain a carrier for wettable powder. […] Then, rice seedlings of 2.5 leaf stage were transplanted in the soil. Water was pored into the pot so as to submerge the soil at a depth of 3 cm. The pot was placed in a greenhouse maintained at 20 to 25° C. for vegetation. […] After 30 days from the application of the herbicidal composition, the herbicidal effect and injury to the paddy rice were determined. […] The injury to crops was evaluated according to the following ratings: [table]"}, "[3]": {"tested_on": "Scirpus juncoides", "assay": "Submersion test, treatment 3 days after transplantation: herbicidal effect", "method": "as §1\nas §2, with “3” for “10”\nas §3, §4, §5, §6"}}, "data": [{"smiles": "CSC1Cc2c(ccc(C(=O)C3=C(SCCOC(C)=O)CCCC3=O)c2Cl)S1(=O)=O", "note": "(stereo not drawn) [Compound No. 34, 4-chloro-2-methylthio-5-[3-(2-acetoxyethyl)thio-1-oxo-2-cyclohexen-2-yl]carbonyl-2,3-dihydrobenzothiophene 1,1-dioxide]", "values": [{"measurement": "Herbicidal effect Scirpus juncoides", "setting": "[1]; application rate 100 g/ha", "result": "4 (70% or higher but less than 90%)"}, {"measurement": "Herbicidal effect Scirpus juncoides", "setting": "[1]; application rate 200 g/ha", "result": "5 (90% or higher (almost completely dead))"}, {"measurement": "Injury paddy rice", "setting": "[2]; application rate 100 g/ha", "result": 0}, {"measurement": "Injury paddy rice", "setting": "[2]; application rate 200 g/ha", "result": 0}, {"measurement": "Herbicidal effect Scirpus juncoides", "setting": "[3]; application rate 100 g/ha", "result": "4 (70% or higher but less than 90%)"}, {"measurement": "Herbicidal effect Scirpus juncoides", "setting": "[3]; application rate 200 g/ha", "result": "5 (90% or higher (almost completely dead))"}]}, {"smiles": "CSC1Cc2c(ccc(C(=O)C3=C(Sc4nccn4C)CCCC3=O)c2Cl)S1(=O)=O", "note": "(stereo not drawn) [Compound No. 35, 4-chloro-2-methylthio-5-[3-(1-methylimidazol-2-yl)thio-1-oxo-2-cyclohexen-2-yl]carbonyl-2,3-dihydrobenzothiophene 1,1-dioxide]", "values": [{"measurement": "Herbicidal effect Scirpus juncoides", "setting": "[1]; application rate 100 g/ha", "result": "4 (70% or higher but less than 90%)"}, {"measurement": "Herbicidal effect Scirpus juncoides", "setting": "[1]; application rate 200 g/ha", "result": "5 (90% or higher (almost completely dead))"}, {"measurement": "Injury paddy rice", "setting": "[2]; application rate 100 g/ha", "result": 0}, {"measurement": "Injury paddy rice", "setting": "[2]; application rate 200 g/ha", "result": 0}, {"measurement": "Herbicidal effect Scirpus juncoides", "setting": "[3]; application rate 100 g/ha", "result": "4 (70% or higher but less than 90%)"}, {"measurement": "Herbicidal effect Scirpus juncoides", "setting": "[3]; application rate 200 g/ha", "result": "5 (90% or higher (almost completely dead))"}]}, {"smiles": "CCOC1=C(C(=O)c2ccc3c(c2Cl)CC(SC)S3(=O)=O)C(=O)CCC1", "note": "(stereo not drawn) [Compound No. 37, 4-chloro-2-methylthio-5-(3-ethoxy-1-oxo-2-cyclohexen-2-yl)carbonyl-2,3-dihydrobenzothiophene 1,1-dioxide]", "values": [{"measurement": "Herbicidal effect Scirpus juncoides", "setting": "[1]; application rate 100 g/ha", "result": "5 (90% or higher (almost completely dead))"}, {"measurement": "Herbicidal effect Scirpus juncoides", "setting": "[1]; application rate 200 g/ha", "result": "5 (90% or higher (almost completely dead))"}, {"measurement": "Injury paddy rice", "setting": "[2]; application rate 100 g/ha", "result": 0}, {"measurement": "Injury paddy rice", "setting": "[2]; application rate 200 g/ha", "result": 0}, {"measurement": "Herbicidal effect Scirpus juncoides", "setting": "[3]; application rate 100 g/ha", "result": "5 (90% or higher (almost completely dead))"}, {"measurement": "Herbicidal effect Scirpus juncoides", "setting": "[3]; application rate 200 g/ha", "result": "5 (90% or higher (almost completely dead))"}]}, {"smiles": "CSC1Cc2c(ccc(C(=O)C3=C(N4CCC=N4)CCCC3=O)c2Cl)S1(=O)=O", "note": "(stereo not drawn) [Compound No. 38, 4-chloro-2-methylthio-5-[3-(4,5-dihydropyrazol-1-yl)-1-oxo-2-cyclohexen-2-yl]carbonyl-2,3-dihydrobenzothiophene 1,1-dioxide]", "values": [{"measurement": "Herbicidal effect Scirpus juncoides", "setting": "[1]; application rate 100 g/ha", "result": "4 (70% or higher but less than 90%)"}, {"measurement": "Herbicidal effect Scirpus juncoides", "setting": "[1]; application rate 200 g/ha", "result": "5 (90% or higher (almost completely dead))"}, {"measurement": "Injury paddy rice", "setting": "[2]; application rate 100 g/ha", "result": 0}, {"measurement": "Injury paddy rice", "setting": "[2]; application rate 200 g/ha", "result": 0}, {"measurement": "Herbicidal effect Scirpus juncoides", "setting": "[3]; application rate 100 g/ha", "result": "4 (70% or higher but less than 90%)"}, {"measurement": "Herbicidal effect Scirpus juncoides", "setting": "[3]; application rate 200 g/ha", "result": "5 (90% or higher (almost completely dead))"}]}, {"smiles": "CSC1Cc2c(ccc(C(=O)C3=C(n4cccn4)CCCC3=O)c2Cl)S1(=O)=O", "note": "(stereo not drawn) [Compound No. 39, 4-chloro-2-methylthio-5-[3-(pyrazol-1-yl)-1-oxo-2-cyclohexen-2-yl]carbonyl-2,3-dihydrobenzothiophene 1,1-dioxide]", "values": [{"measurement": "Herbicidal effect Scirpus juncoides", "setting": "[1]; application rate 100 g/ha", "result": "4 (70% or higher but less than 90%)"}, {"measurement": "Herbicidal effect Scirpus juncoides", "setting": "[1]; application rate 200 g/ha", "result": "5 (90% or higher (almost completely dead))"}, {"measurement": "Injury paddy rice", "setting": "[2]; application rate 100 g/ha", "result": 0}, {"measurement": "Injury paddy rice", "setting": "[2]; application rate 200 g/ha", "result": 0}, {"measurement": "Herbicidal effect Scirpus juncoides", "setting": "[3]; application rate 100 g/ha", "result": "4 (70% or higher but less than 90%)"}, {"measurement": "Herbicidal effect Scirpus juncoides", "setting": "[3]; application rate 200 g/ha", "result": "5 (90% or higher (almost completely dead))"}]}, {"smiles": "CSC1Cc2c(ccc(C(=O)C3C(=O)CCCC3=O)c2Br)S1(=O)=O", "note": "(stereo not drawn) [Compound No. 41, 4-bromo-2-methylthio-5-(1,3-dioxocyclohex-2-yl)carbonyl-2,3-dihydrobenzothiophene 1,1-dioxide]", "values": [{"measurement": "Herbicidal effect Scirpus juncoides", "setting": "[1]; application rate 100 g/ha", "result": "5 (90% or higher (almost completely dead))"}, {"measurement": "Herbicidal effect Scirpus juncoides", "setting": "[1]; application rate 200 g/ha", "result": "5 (90% or higher (almost completely dead))"}, {"measurement": "Injury paddy rice", "setting": "[2]; application rate 100 g/ha", "result": 0}, {"measurement": "Injury paddy rice", "setting": "[2]; application rate 200 g/ha", "result": 0}, {"measurement": "Herbicidal effect Scirpus juncoides", "setting": "[3]; application rate 100 g/ha", "result": "5 (90% or higher (almost completely dead))"}, {"measurement": "Herbicidal effect Scirpus juncoides", "setting": "[3]; application rate 200 g/ha", "result": "5 (90% or higher (almost completely dead))"}]}]}
